Test system: tyrosinase (Sigma T-7755)
Test: tyrosinase assay: conversion of L-DOPA to DOPAquinone, monitored at 475 nm
Assay type: biochemical
Conditions: for Inhibition of tyrosinase enzyme step 2, 0.001% conc: ingredient at 0.001% conc; for Inhibition of tyrosinase enzyme step 2, 0.01% conc: ingredient at 0.01% conc; for Inhibition of tyrosinase enzyme step 2, 0.1% conc: ingredient at 0.1% conc; for Inhibition of tyrosinase enzyme step 2, 1% conc: ingredient at 1% conc; for INHIBITION OF ENZYME: comparison standard, 1% solution (solids present 1.0)
Description: The tyrosinase assay was based on methods previously published (Mason, H. S., (1948) J. Biol. Chem. 172, 83-86; Dawson, C. R. and Magee, R. J. (1955) Methods in Enzymology II 817-827 (Editors-in-chief S. P. Colowick and N. O. Caplan); Lerner, A. B. (1955) ibid 827-831; Bergmeyer, U. H. (1983) Methods of Enzymatic Analysis (Published by Verlag Chemie, Weinheim)). The protocol was as follows, scaled for the approximately twenty sample determinations:
(a) A buffer solution of pH 6.5 was prepared by dissolving 1.4 9 disodium monohydrogen phosphate (Na2HPO4) and 1.4 g monopotassium dihydrogen phosphate (KH2PO4) in pure water to make 200 mL.
(b) An enzyme solution of either 1.0 mg or 3.0 mg tyrosinase (Sigma T-7755) was prepared in 30 mL buffer and stored at 2° C. until use.
(c) A substrate solution was prepared by dissolving 0.10 g L-DOPA (L-3,4-dihydroxyphenyl-alanine, Sigma D-9661) in 100 ML buffer.
(d) The unfettered enzyme reaction rate was measured by mixing together 0.5 mL buffer solution and 0.5 mL substrate solution in twin acrylate mini-cuvettes (path 2.0 mm), and after observing the stability of the mixture, mixing in 0.25 mL enzyme solution to one cuvette. The formation of red DOPAquinone was monitored spectrophotometrically at 475 nm, at times 0, 1, 2 and 3 minutes.
(e) The effect of added substances on the enzyme reaction rate was measured by mixing together 0.5 mL buffer solution, 0.5 mL substrate solution and 0.25 mL test substance (at 1% strength in 50:50 butyleneglycol:water) in twin acrylate mini-cuvette. The reaction was tracked spectrophotometrically at 475 nm, reading at 0, 1, 2 and 3 minutes.
(f) The effect of test substances on reaction rate was expressed as inhibition (I) where I=100−[100 (trt absorbance change, 3 min)/100(control absorbance change, 3 min)].
Concentrations of substrate, enzyme or test substance can be varied as appropriate.
(§1) This assay duplicates rate-controlling steps in the human metabolic pathway to skin pigmentation. Pure hydroquinone in 1% solution was employed as a comparison standard.
as §1

Inhibition of tyrosinase enzyme step 2, 0.001% conc (Table 4) | Inhibition of tyrosinase enzyme step 2, 0.01% conc (Table 4) | Inhibition of tyrosinase enzyme step 2, 0.1% conc (Table 4) | Inhibition of tyrosinase enzyme step 2, 1% conc (Table 4) | Inhibition of tyrosinase enzyme step 2, 0.001% conc (Table 6) | Inhibition of tyrosinase enzyme step 2, 0.01% conc (Table 6) | Inhibition of tyrosinase enzyme step 2, 0.1% conc (Table 6) | Inhibition of tyrosinase enzyme step 2, 1% conc (Table 6) | Enzymes reaction rate reduction @ 5 μg enzyme (5 μg enzyme, test substance at 1% strength) | Enzymes reaction rate reduction @ 15 μg enzyme (15 μg enzyme, test substance at 1% strength) | INHIBITION OF ENZYME (Table 3) | INHIBITION OF ENZYME (Table 5) | Compound | effect on tyrosinase in standard assays (in words) (constituents of TYROSTAT compositions)
23% | 82% | 100% | 100% | 23% | 82% | 100% | 100% | – | – | – | – | O=C1O[C@H]([C@@H](O)CO)C(O)=C1O [Ascorbic acid, L-ascorbic acid] | –
<10% | <10% | 31% | 60% | <10% | <10% | 31% | 60% | 65% | 55% | 58-62% | 38-62% | Oc1ccc(O)cc1 [Hydroquinone, 1,4-dihydroxybenzene] | –
– | – | – | – | – | – | – | – | – | – | – | – | CC(O)CCO (stereo not drawn) [butanediol, 1,3-butanediol] | slightly inhibitory

Reference: patent publication US6521267B1, “Tyrosinase inhibitors from plants” (Fytokem Prtoducts, Inc., priority 1998, dated 2003)
